Laboratory results reported in BindingDB's records for patent US9593123 (Hoffmann-La Roche, 2017).

Biological target: Cannabinoid receptor 1 (Homo sapiens, UniProt P21554)
Sequence (P21554 whole entry): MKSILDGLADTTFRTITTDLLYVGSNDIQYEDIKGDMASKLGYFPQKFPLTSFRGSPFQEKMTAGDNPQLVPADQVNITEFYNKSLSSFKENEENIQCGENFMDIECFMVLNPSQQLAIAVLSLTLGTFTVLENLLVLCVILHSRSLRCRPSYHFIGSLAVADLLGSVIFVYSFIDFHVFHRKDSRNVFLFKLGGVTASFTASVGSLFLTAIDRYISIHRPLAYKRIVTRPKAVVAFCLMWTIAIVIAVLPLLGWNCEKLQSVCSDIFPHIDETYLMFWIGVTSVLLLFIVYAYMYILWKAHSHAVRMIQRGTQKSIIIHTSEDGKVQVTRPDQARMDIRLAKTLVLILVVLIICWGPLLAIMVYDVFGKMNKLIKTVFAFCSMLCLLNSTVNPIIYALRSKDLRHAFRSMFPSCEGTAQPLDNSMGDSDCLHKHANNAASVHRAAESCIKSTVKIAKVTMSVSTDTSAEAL

Compound: CC(=O)N[C@H]1CCN(c2nc(O[C@@H](C)C(F)(F)F)nc3c2nnn3Cc2ccccc2C(F)(F)F)C1 [US9593123, Example 81]
- EC50: > 10 µM
